Data on twelve compounds can be found in US20260335450A1, “TARGETED PROTEIN DEGRADATION THROUGH SITE-SPECIFIC RECRUITMENT OF UBIQUITIN LIGASE” (University of Pittsburgh - Of the Commonwealth System of …, priority 2023, published 2026).

The conditions of experiment [1]: cited from earlier work.
In another experiment the test system is mCherry-EGFP-G134TetF. Description: In cellulo bioconjugation quantified with sTCO-CA and HaloTag. Type of experiment: cell-based. The note with it: sTCO-CA then HaloTag. The method, then:
(§1) FIGS. 1A-1B. Experimental workflow for the quantification of bioconjugation to UAA-bearing proteins expressed in cells. Following expression of the POI bearing a UAA at any surface position (e.g., A-E), the FIG. 1A) sTCO-chloroalkane ligand or FIG. 1B) sTCO-E3 ligase ligand, is added to the media and undergoes a selective bioconjugation with the UAA. Excess ligand is washed away and cells are FIG. 1A) lysed or FIG. 1B) incubated with sTCO-chloroalkane then lysed. The lysate is incubated with HaloTag protein and the bioconjugation is quantified via western blot.
(§2) Before comparing the degradation of different mCherry-EGFP mutants, validating the extent of bioconjugation to TetF at each position was required. A method for quantifying in cellulo protein bioconjugation that utilizes a strained trans-cyclooctene chloroalkane (sTCO-CA) to react with TetF and subsequently dimerize with the self-labeling enzyme, HaloTag, was previously […]. Using this technique, the extent of bioconjugation mCherry-EGFP-I129TetF (~90%) and mCherry-EGFP-G134TetF (~55%, FIG. 4D) was quantified. Bioconjugation to two new mCherry-EGFP-TetF mutants using the same method was also quantified (FIG. 7). […] By determining the extent of bioconjugation to TetF mutants across the surface of mCherry-EGFP, variations in degradation due to incomplete bioconjugation could be evaluated. […]

In a further experiment the test system is mCherry-EGFP-I129TetF. The description is as above. Type of experiment: cell-based. Particulars: sTCO-CA then HaloTag. As for the experimental part:
as §1, §2

The subject of experiment [2] is mCherry-EGFP-Y151TetF. Description: Degradation mechanism: thalidomide-OH pretreatment, cereblon-mediated degradation. Type of experiment: cell-based. Particulars: pretreatment with 100 µM of Thal-OH, then sTCO-PEG2-CRBN.
The test system of experiment [3] is mCherry-EGFP-Y151TetF. Description: Degradation mechanism: proteasome inhibitor pre-treatment. Type of experiment: cell-based. The note with it: 10 μM inhibitor, 4 h pre-incubation; then 10 μM sTCO-PEG2-CRBN overnight. As for the experimental part:
FIGS. 16A-16B. Degradation mechanism of sTCO-PEG2-CRBN. FIG. 16A) The degradation of mCherry-EGFP-Y151TetF was reduced when cells were pre-treated with proteasome inhibitor MG132 or epoxomicin, validating that sTCO-PEG2-CRBN induced degradation is mediated by the proteasome.
For mechanistic insight into sTCO-PEG2-CRBN degradation (FIG. 16) cells were transfected as described above. A 10 μM working solution of media containing either MG132 or epoxomicin was made by adding 1 μL of the respective proteasome inhibitor (10 mM in DMSO) into 999 μL of complete medium. Following removal of TetF, 200 μL of media supplemented with either MG132, epoxomicin, or DMSO was added to each well and the cells were incubated for 4 h. Next, a solution containing 50 μM of sTCO-PEG2-CRBN was made by adding 5 μL of sTCO-PEG2-CRBN (10 mM in DMSO) into 995 μL of complete medium. Following the allotted time for proteasome inhibitor incubation, 50 μL of 50 μM sTCO-PEG2-CRBN was added directly to each well, for a final volume of 250 μL and final concentration of 10 μM of sTCO-PEG2-CRBN. The cells were then incubated overnight at 37° C. with 5% CO2 before lysis and western blot analysis.

For the next experiment, the system named is DUSP1. Particulars: cited from earlier work.
Another experiment concerns MKP3. Particulars: cited from earlier work.

Structures are written as SMILES. Read-outs that look alike come from different tables or passages of the source. Residues, ends and D or L forms follow the SMILES beside them. *: point of attachment. Cbz = O=C(OCc1ccccc1)*

Regarding `C=Cc1ccccc1` [j], the Second-order rate constant in experiment [1] (Mixture (Org water) 50:50) is on record as 0.05 (50:50)^Ref 11 M^−1s^−1. Turning to `OCC1[C@@H]2CCC#CCC[C@@H]12` (stereo partly drawn) [d], the Second-order rate constant is recorded as 1245 (55:45)^Ref 6 M^−1s^−1 in experiment [1] (Mixture (Org water) 55:45) and 45^Ref 4 M^−1s^−1 in experiment [1] (Organic solvent).

As for `OCC1O[C@H]2C/C=C\CCC[C@H]2O1` (stereo partly drawn) [c], the Second-order rate constant in experiment [1] (Aqueous solvent, anti iso) was 318000 M⁻¹ s⁻¹; in experiment [1] (Aqueous solvent, syn iso) it was 366000 M⁻¹ s⁻¹; in experiment [1] (Mixture (Org water) 55:45), 167000 (55:45)^Ref 3 M^−1s^−1. Regarding `O=C(NCCOCCOCCCCCCCl)OCC1C2CC/C=C/CCC21` (stereo not drawn) [sTCO-CA], the extent of bioconjugation with mCherry-EGFP-G134TetF is listed as ~ 55%; in the experiment on mCherry-EGFP-I129TetF it was ~ 90%.

In the case of `OC1CC/C=C\CCC1` (stereo not drawn) [a], the Second-order rate constant in experiment [1] (Aqueous solvent, ax iso) is 80200 M⁻¹ s⁻¹; in experiment [1] (Aqueous solvent, eq iso), 22600 M⁻¹ s⁻¹; in experiment [1] (Mixture (Org water) 90:10) it was 2000 (90:10)^Ref 5 M^−1s^−1; in experiment [1] (Organic solvent), 1140^Ref 5 M^−1s^−1. Take `O=C1CCC(N2C(=O)c3cccc(O)c3C2=O)C(=O)N1` (stereo not drawn) [Thal-OH, thalidomide-OH]: in the experiment on mCherry-EGFP-Y151TetF [2], the “effect of thalidomide-OH pretreatment on sTCO-PEG2-CRBN degradation” value is on record as “reduced degradation”. Regarding `CC(C)C[C@@H](C=O)NC(=O)[C@H](CC(C)C)NC(=O)[C@H](CC(C)C)NC(=O)OCc1ccccc1` [MG132] (Cbz-Leu-Leu-Leu-aldehyde), in the experiment on mCherry-EGFP-Y151TetF [3], the “effect of proteasome inhibitor pre-treatment on sTCO-PEG2-CRBN induced degradation” value is “reduced”.

For `O=C(O)CC1CC2C=CC1C2` (stereo not drawn) [h], in experiment [1] (Aqueous solvent), the Second-order rate constant was 1.9^Ref 9 M^−1s^−1. Consider `CC[C@H](C)[C@H](NC(=O)[C@H]([C@@H](C)CC)N(C)C(C)=O)C(=O)N[C@H](C(=O)N[C@@H](CC(C)C)C(=O)[C@@]1(C)CO1)[C@@H](C)O` [epoxomicin], for which the “effect of proteasome inhibitor pre-treatment on sTCO-PEG2-CRBN induced degradation” value with mCherry-EGFP-Y151TetF [3] is on record as “reduced”.

Consider `O=C1C(=Cc2ccccc2)C(NC2CCCCC2)c2ccccc21` (stereo not drawn) [BCI], for which the “inhibition of DUSP1” value in the experiment on DUSP1 was “inhibits DUSP1”. Also, the “inhibition of MKP3” value in the experiment with MKP3 is reported as “known allosteric inhibitor”. Take `OCC1[C@@H]2C/C=C\CCC[C@@H]12` (stereo partly drawn) [b]: the Second-order rate constant in experiment [1] (Aqueous solvent) is listed as 3300000^Ref 2 M^−1s^−1; in experiment [1] (Organic solvent), 22000^Ref 3 M^−1s^−1. For `C=CCSC[C@H](N)C(=O)O` [m], in experiment [1] (Mixture (Org water) 50:50), the Second-order rate constant is on record as 0.002 (50:50)^Ref 13 M^−1s^−1.
